Values of other authors as cited in patent US20240050486A1, “METHODS OF GENERATING CORTICAL EXCITATORY NEURONS” (Memorial Sloan-Kettering Cancer Center, priority 2021, published 2024).

Legend:
WNT pathway (Porcupine) = conditions: at the level of the pathway activator Porcupine; read-out: IC50 WNT pathway inhibition

| Compound | IC50 (WNT pathway (Porcupine)) | degradation of β-catenin (SW480 cells) | protein levels of the axin-GSK3β complex (SW480 cells) |
| --- | --- | --- | --- |
| Cc1ccc2nc(NC(=O)CSc3nc4c(c(=O)n3-c3ccccc3)SCC4)sc2c1 [IWP-2, N-(6-methyl-1,3-benzothiazol-2-yl)-2-[(4-oxo-3-phenyl-6,7-dihydrothieno[3,2-d]pyrimidin-2-yl)thio]acetamide] | 27 nM |  |  |
| Oc1nc(-c2ccc(C(F)(F)F)cc2)nc2c1CSCC2 [XAV939] |  | promotes the degradation of β-catenin | increases the protein levels of the axin-GSK3β complex |
